Assays:
[1] = target: SARS-CoV-2 Main Protease (SARS-CoV-2) (UniProt P0DTD1)
Description: Briefly, compounds were seeded into assay-ready plates (Greiner 384PP, cat# 781280) using an ECHO 650T dispenser and DMSO was back-filled for a uniform concentration in assay plates (DMSO concentration < 1%, final volume = 500 nL.). […] After a quick centrifugation step (1000 rpm, 15 s) the plate is incubated for 15 min at room temperature. […] After centrifugation (1000 rpm, 14 s) the reaction is incubated for 10 min (11-mer) or 5 min (37-mer) at room temperature before quenching with 10 % formic acid. The reactions are analysed with MS using RapidFire (RF) 365 high-throughput sampling robot (Agilent) connected to an iFunnel Agilent 6550 accurate mass quadrupole time-of-flight (Q-TOF) mass spectrometer using electrospray. […] Dose response curves uses an 11-point range of 100--0.0017 µM inhibitor concentrations. RapidFire integrator software (Agilent) was used to extract the charged states from the total ion chromatogram data followed by peak integration. For the 11-mer peptide the m/z (+1) charge states of both the substrate (1191.67 Da) and cleaved N-terminal product TSAVLQ (617.34 Da) were used and the 37-mer peptide the m/z (+2) charge states of the substrate (3960.94 Da) and m/z (+1) of the cleaved C-terminal product [sequence] (1125.57 Da). Percentage conversion (product peak integral / (product peak integral + substrate peak integral))*100) and percentage inhibitions were calculated and normalised against DMSO control with deduction of any background signal in Microsoft Excel. IC50s were calculated using Levenberg–Marquardt algorithm used to fit a restrained Hill equation to the dose-response data with both GraphPad PRISM and CDD.

[2] = target: SARS-CoV-2 Main Protease (SARS-CoV-2) (UniProt P0DTD1); remark: listed apart in the source
Description: Compounds were seeded into assay-ready plates (Greiner 384 low volume, cat 784900) using an Echo 555 acoustic dispenser, and DMSO was back-filled for a uniform concentration in assay plates (DMSO concentration maximum 1%) Screening assays were performed in duplicate at 20µM and 50µM. […] Dose response assays were performed in 12 point dilutions of 2-fold, typically beginning at 100µM. […] Reagents for Mpro assay were dispensed into the assay plate in 10µl volumes for a final volume of 20µL.
Mpro was pre-incubated for 15 minutes at room temperature with compound before addition of substrate and a further 30 minute incubation. Protease reaction was measured in a BMG Pherastar FS with a 480/520 ex/em filter set. Raw data was mapped and normalized to high (Protease with DMSO) and low (No Protease) controls using Genedata Screener software.

| Compound | relative solubility at 20 uM | relative solubility at 100 uM | inhibition ([1]; 20.0 µM) [%] | inhibition ([1]; 50.0 µM) [%] | inhibition ([2]; 50.0 µM) [%] | inhibition ([2]; 20.0 µM) [%] | IC50 [1] [nM] | IC50 [2] [nM] |
| --- | --- | --- | --- | --- | --- | --- | --- | --- |
| Cn1nncc1CC(=O)NC(c1ccccc1)c1nc2ccccc2n1C (configuration not stated) | 1 | 1 | 0 | 0 | 54.1 | – | – | – |
| N#Cc1cccc(NC(=O)Nc2c[nH]c3ncccc23)c1 | 1 | 0.91 | 0 | 19.9 | 47.3 | – | – | – |
| N#Cc1ccnc(CNC(=O)Cc2c[nH]c3ncccc23)c1 | 0.97 | 0.98 | 0 | – | -17.2 | -23.2 | – | – |
| C#CCN1CCN(C(=O)CCl)CC1 | 1 | 1 | 6.86 | 7.12 | 27.2 | – | – | – |
| CN1CCN(C(=O)Cc2c[nH]c3ncccc23)CC1C(=O)NCCc1c[nH]c2ccc(F)cc12 (configuration not stated) | 0.98 | 0.98 | – | -15 | -21.5 | -9.55 | – | – |
| O=C1CN(c2nnc(C3CCC(=O)N3)n2CCn2cc(Cl)cn2)CCN1 (configuration not stated) | 1 | 1 | – | 35.3 | -0.405 | -2.26 | – | – |
| C=CC(=O)N(c1ccc(C(C)OC)cc1)C(C(=O)Nc1c(C)cccc1CC)c1cccnc1 (configuration not stated) | 0.96 | 0.87 | 0 | – | 3.94 | 5.9 | – | – |
| N#CC(C(=O)Nc1ccccc1)C(=O)c1cccc(Cl)c1 (configuration not stated) | 0.98 | 0.98 | 0 | 0 | 44 | 24.1 | – | – |
| O=C(O)[C@@H](Cc1nc(=O)cc[nH]1)NC[C@@H]1C[C@@H]2C=C[C@H]1C2 (stereo in doubt) | 1 | 1 | – | 29.5 | 26.4 | 13.7 | – | – |
| COc1ccc(C2CC(c3ccccc3)=NN2C(=O)CCl)cc1OC (configuration not stated) | 0.99 | 0.85 | – | 100 | 99.6 | 100 | 421 | – |
| O=C(Nc1nc2ccc(F)cn2n1)C1CCOc2ccc(Cl)cc21 (configuration not stated) | 1 | 0.99 | – | 0 | 7.58 | -28.5 | – | – |
| C=CC(=O)N1CCC(N(Cc2ccccc2C#N)C2CCC(O)CC2)CC1 (configuration not stated) | 0.99 | 0.99 | – | 0 | -8.67 | -64 | – | – |
| CN(Cc1ccc(OCc2cccs2)cc1)C(=O)Cn1nnc2ccccc21 | 0.56 | -0.05 | 0 | – | 10.2 | 2.49 | – | – |
| O=C(Cc1ccccc1)Nc1cccc(OC2CC(=O)N2)c1 (configuration not stated) | 1 | 1 | – | 0 | -0.808 | -2.28 | – | – |
| O=C(Nc1ccccc1Cl)c1cc(Cl)ccc1O | 0.91 | 0.7 | 7.14 | – | 5.58 | 5.47 | – | – |
| C=CC(=O)N(c1ccc(SC)cc1)C(C(=O)Nc1ccc(OC)cc1)c1cccnc1 (configuration not stated) | 0.91 | 0.77 | 0 | – | 27 | 13.5 | – | – |
| CC(=O)N1CCN(CC(=O)Nc2cccc(S(N)(=O)=O)c2)CC1 | 1 | 1 | 0 | – | 2.63 | -3.12 | – | – |
| CCSCC1CCN(c2ccc(S(N)(=O)=O)cc2)CC1 | 1 | 1.01 | 26 | 40.2 | -25.8 | – | – | – |
| CS(=O)(=O)Nc1cccc(C(=O)Nc2cccc(N3CCCC3=O)c2)c1 | 1 | 0.99 | 0 | – | 5.19 | 0.866 | – | – |
| Cc1ccc(NC(=O)C(C#N)C(=O)CC(C)C)cc1 (configuration not stated) | 0.99 | 1 | 3.11 | 0 | 21.5 | – | – | – |
| O=C(CCl)N1CCN(Cc2cccc(Cl)c2)CC1 | 1 | 1 | 99.8 | 100 | 108 | – | 545 | 2540 |
| O=C(CC(=O)N1CCOCC1)NCc1ccccc1 | 0.99 | 1 | 0 | 0 | 15.1 | -1.44 | – | – |
| O=C(Cc1cccc(Cl)c1)Nn1cnc2ccccc2c1=O | 1 | 1 | – | 0 | 87 | 70.9 | – | – |
| C=CC(=O)N(c1ccc(C(C)(C)C)cc1)C(C(=O)NCc1ccc(F)cc1)c1cccnc1 (configuration not stated) | 0.98 | 0.66 | 79.3 | 100 | 76.4 | 51.2 | 10500 | – |
| C=CC(=O)N(c1ccc(C(C)(C)C)cc1)C(C(=O)NCCCSC)c1cccnc1 (configuration not stated) | 1 | 1 | 70 | 100 | 75.6 | 50.3 | 13700 | – |
| CC(Cl)C(=O)N1CCC(C(=O)N2CCCCC2)CC1 (configuration not stated) | 0.99 | 1 | 0 | 0 | -27 | -11.9 | – | – |
| Cc1cc(NC(=O)Cc2cncnc2)cc(OC2CC(=O)N2)c1 (configuration not stated) | 1.01 | 1 | – | 45 | 72.7 | 49.3 | – | – |
| NC(=O)C1Cc2ccccc2N(CC(=O)Nc2cnccn2)C1 (configuration not stated) | 1 | 0.93 | 0 | 0 | 6.19 | 0.0292 | – | – |
| CC1CN(Cc2ccccc2NC(=O)NCc2cnsc2)CC(C)O1 (configuration not stated) | 1 | 0.98 | 0 | 1.33 | 4.44 | 1.48 | – | – |
| NS(=O)(=O)c1ccc(N2CCC([C@@H]3CCCO3)CC2)cc1 (stereo in doubt) | 0.99 | 1 | 35 | 52.2 | -16 | – | – | – |

Reference: the COVID Moonshot data (paper PMC11187573), “Identification of SARS-CoV-2 Mpro inhibitors through deep reinforcement learning for de novo drug design and computational chemistry approaches” (RSC Medicinal Chemistry, 2024)
